Target: T1, BRM (Homo sapiens, UniProt P51531)
T1 construct: In-Cell Western Screen of BRM Degradation in SW1573 Cells; endogenous in cells; host or cells: SW1573
Assay: In-cell Western screen of BRM degradation in SW1573 cells (Dmax and DC50)
Format: cell-based
Conditions: BRM degradation, SW1573 cells; for DC50: read-out: DC50; for Dmax: tested at the top concentration of between 0.3 and 10 μM, read-out: Dmax (%) (% degraded)
Outline: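 SW1573 cells were treated with compound overnight (18-20 h; final DMSO 0.1%), then fixed in 4% PFA, permeabilized with Triton X-100 and blocked. BRM was detected by in-cell Western using 800 nm anti-rabbit and 680 nm anti-mouse secondaries, and Dmax and DC50 were derived from the LI-COR Odyssey signal.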

T1 sequence (P51531 whole entry): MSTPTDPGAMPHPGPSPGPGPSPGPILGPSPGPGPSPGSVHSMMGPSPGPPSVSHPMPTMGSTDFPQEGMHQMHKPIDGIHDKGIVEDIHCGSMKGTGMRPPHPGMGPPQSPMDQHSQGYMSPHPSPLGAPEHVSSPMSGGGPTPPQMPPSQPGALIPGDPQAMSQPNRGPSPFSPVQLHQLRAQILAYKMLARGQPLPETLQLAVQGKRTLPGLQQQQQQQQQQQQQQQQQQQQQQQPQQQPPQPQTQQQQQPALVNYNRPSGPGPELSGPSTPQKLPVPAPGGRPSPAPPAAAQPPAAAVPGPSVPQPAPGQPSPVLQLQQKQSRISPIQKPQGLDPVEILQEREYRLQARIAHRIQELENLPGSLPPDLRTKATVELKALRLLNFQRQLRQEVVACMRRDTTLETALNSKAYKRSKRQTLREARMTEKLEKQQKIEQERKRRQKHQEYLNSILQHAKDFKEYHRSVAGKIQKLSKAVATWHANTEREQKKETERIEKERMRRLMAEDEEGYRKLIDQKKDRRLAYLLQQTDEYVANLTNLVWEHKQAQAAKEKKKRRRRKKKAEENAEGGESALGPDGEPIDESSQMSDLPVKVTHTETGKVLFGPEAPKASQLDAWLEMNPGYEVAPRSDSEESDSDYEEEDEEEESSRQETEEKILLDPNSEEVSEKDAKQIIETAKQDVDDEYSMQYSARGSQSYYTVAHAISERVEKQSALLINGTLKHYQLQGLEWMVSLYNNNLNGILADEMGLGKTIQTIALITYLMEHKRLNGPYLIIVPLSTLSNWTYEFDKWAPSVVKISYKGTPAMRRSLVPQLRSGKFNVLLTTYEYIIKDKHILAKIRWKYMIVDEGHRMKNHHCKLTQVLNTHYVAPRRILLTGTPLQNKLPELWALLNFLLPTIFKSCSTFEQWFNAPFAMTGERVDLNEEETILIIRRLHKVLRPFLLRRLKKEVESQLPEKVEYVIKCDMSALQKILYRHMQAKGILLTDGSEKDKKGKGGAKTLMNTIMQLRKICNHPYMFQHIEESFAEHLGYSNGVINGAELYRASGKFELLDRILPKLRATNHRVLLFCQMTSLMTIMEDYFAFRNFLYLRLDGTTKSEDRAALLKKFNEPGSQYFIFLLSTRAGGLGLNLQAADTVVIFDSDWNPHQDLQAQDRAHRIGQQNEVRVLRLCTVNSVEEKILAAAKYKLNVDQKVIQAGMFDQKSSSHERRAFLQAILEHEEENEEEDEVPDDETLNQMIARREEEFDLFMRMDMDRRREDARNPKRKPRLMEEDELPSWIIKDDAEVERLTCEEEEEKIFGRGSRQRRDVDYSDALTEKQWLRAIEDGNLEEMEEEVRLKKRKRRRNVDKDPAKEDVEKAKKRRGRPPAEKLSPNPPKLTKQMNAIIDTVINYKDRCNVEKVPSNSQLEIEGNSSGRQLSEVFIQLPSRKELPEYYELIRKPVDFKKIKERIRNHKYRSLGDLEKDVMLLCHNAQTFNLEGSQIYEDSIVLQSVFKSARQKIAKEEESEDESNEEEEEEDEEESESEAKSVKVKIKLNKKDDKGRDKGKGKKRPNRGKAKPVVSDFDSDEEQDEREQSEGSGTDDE

Row | SMILES | DC50 | Dmax
1 | Cc1ncsc1-c1ccc([C@H](C)NC(=O)[C@@H]2C[C@@H](O)CN2C(=O)[C@@H](c2cc(OCCN3CCC(O[C@H]4C[C@H](Oc5cc(N6C7CCC6CN(c6cc(-c8ccccc8O)nnc6N)C7)ccn5)C4)CC3)no2)C(C)C)c(F)c1 [compound 240, (2S,4R)-1-((2R)-2-(3-(2-(4-((1r,3R)-3-((4-(3-(3-amino-6-(2-hydroxyphenyl)pyridazin-4-yl)-3,8-diazabicyclo[3.2.1]octan-8-yl)pyridin-2-yl)oxy)cyclobutoxy)piperidin-1-yl)ethoxy)isoxazol-5-yl)-3-methylbutanoyl)-N-((S)-1-(2-fluoro-4-(4-methylthiazol-5-yl)phenyl)ethyl)-4-hydroxypyrrolidine-2-carboxamide] | < 2.5 nM | > 75%
2 | Cc1ncsc1-c1ccc([C@H](C)NC(=O)[C@@H]2C[C@@H](O)CN2C(=O)[C@H](c2cc(O[C@H]3C[C@H](CN4CCC(O[C@H]5C[C@H](Oc6cc(N7C8CCC7CN(c7cc(-c9ccccc9O)nnc7N)C8)ccn6)C5)CC4)C3)no2)C(C)C)cc1 [compound 241, (2S,4R)-1-((2S)-2-(3-((1R,3S)-3-((4-((1r,3R)-3-((4-(3-(3-amino-6-(2-hydroxyphenyl)pyridazin-4-yl)-3,8-diazabicyclo[3.2.1]octan-8-yl)pyridin-2-yl)oxy)cyclobutoxy)piperidin-1-yl)methyl)cyclobutoxy)isoxazol-5-yl)-3-methylbutanoyl)-4-hydroxy-N-((S)-1-(4-(4-methylthiazol-5-yl)phenyl)ethyl)pyrrolidine-2-carboxamide] | 2.5 to 10 nM | > 75%
3 | Cc1ncsc1-c1ccc([C@H](C)NC(=O)[C@@H]2C[C@@H](O)CN2C(=O)[C@@H](c2cc(O[C@H]3C[C@H](CN4CCC(O[C@H]5C[C@H](Oc6cc(N7C8CCC7CN(c7cc(-c9ccccc9O)nnc7N)C8)ccn6)C5)CC4)C3)no2)C(C)C)cc1 [compound 242, (2S,4R)-1-((2R)-2-(3-((1R,3R)-3-((4-((1r,3R)-3-((4-(3-(3-amino-6-(2-hydroxyphenyl)pyridazin-4-yl)-3,8-diazabicyclo[3.2.1]octan-8-yl)pyridin-2-yl)oxy)cyclobutoxy)piperidin-1-yl)methyl)cyclobutoxy)isoxazol-5-yl)-3-methylbutanoyl)-4-hydroxy-N-((S)-1-(4-(4-methylthiazol-5-yl)phenyl)ethyl)pyrrolidine-2-carboxamide] | < 2.5 nM | > 75%
4 | Cc1ncsc1-c1ccc([C@H](NC(=O)[C@@H]2C[C@@H](O)CN2C(=O)[C@@H](c2cc(OCCN3CCC(O[C@H]4C[C@H](Oc5cc(N6C7CCC6CN(c6cc(-c8ccccc8O)nnc6N)C7)ccn5)C4)CC3)no2)C(C)C)C(F)F)cn1 [compound 243, (2S,4R)-1-((2R)-2-(3-(2-(4-((1r,3R)-3-((4-(3-(3-amino-6-(2-hydroxyphenyl)pyridazin-4-yl)-3,8-diazabicyclo[3.2.1]octan-8-yl)pyridin-2-yl)oxy)cyclobutoxy)piperidin-1-yl)ethoxy)isoxazol-5-yl)-3-methylbutanoyl)-N-((S)-2,2-difluoro-1-(6-(4-methylthiazol-5-yl)pyridin-3-yl)ethyl)-4-hydroxypyrrolidine-2-carboxamide] | < 2.5 nM | > 75%
5 | Cc1ncsc1-c1ccc([C@@H](NC(=O)[C@@H]2C[C@@H](O)CN2C(=O)[C@@H](c2cc(OCCN3CCC(O[C@H]4C[C@H](Oc5cc(N6C7CCC6CN(c6cc(-c8ccccc8O)nnc6N)C7)ccn5)C4)CC3)no2)C(C)C)C(F)F)cn1 [compound 244, (2S,4R)-1-((2R)-2-(3-(2-(4-((1r,3R)-3-((4-(3-(3-amino-6-(2-hydroxyphenyl)pyridazin-4-yl)-3,8-diazabicyclo[3.2.1]octan-8-yl)pyridin-2-yl)oxy)cyclobutoxy)piperidin-1-yl)ethoxy)isoxazol-5-yl)-3-methylbutanoyl)-N-((R)-2,2-difluoro-1-(6-(4-methylthiazol-5-yl)pyridin-3-yl)ethyl)-4-hydroxypyrrolidine-2-carboxamide] | < 2.5 nM | > 75%

From US12539292B2, “BRM targeting compounds and associated methods of use” (Arvinas Operations, Inc., priority 2018, dated 2026)
